Test results published in PubChem BioAssay (NCI).
Where “and” joins values, the source holds several entries; their conditions need not be identical. Equal entries are not always repeated.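 Interpolation was linear, between the two tested concentrations surrounding the appropriate level; five concentrations were tested over 48 hours in 96-well plates. GI50: concentration for 50% inhibition of growth. The concentration for full growth arrest is given as TGI.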

Key:
Test in all cases: NCI tumour cell line growth inhibition, 48 h
KM20L2 colon = system: KM20L2 colon
CAKI-1 renal = system: CAKI-1 renal
MDA-MB-231 breast = system: MDA-MB-231 breast
BT-549 breast = system: BT-549 breast
SF-295 CNS = system: SF-295 CNS
A498 renal = system: A498 renal
T-47D breast = system: T-47D breast
HCT-15 colon = system: HCT-15 colon
DU-145 prostate = system: DU-145 prostate
PC-3 prostate = system: PC-3 prostate
P388/ADR leukemia = system: P388/ADR leukemia
DMS 114 small cell lung = system: DMS 114 small cell lung
K-562 leukemia = system: K-562 leukemia
UO-31 renal = system: UO-31 renal
KM12 colon = system: KM12 colon
SR leukemia = system: SR leukemia
P388 leukemia = system: P388 leukemia
SK-MEL-5 melanoma = system: SK-MEL-5 melanoma
SK-MEL-28 melanoma = system: SK-MEL-28 melanoma
SN12K1 renal = system: SN12K1 renal
NCI-H522 lung = system: NCI-H522 lung
OVCAR-3 ovarian = system: OVCAR-3 ovarian
SN12C renal = system: SN12C renal
SK-MEL-2 melanoma = system: SK-MEL-2 melanoma
CCRF-CEM leukemia = system: CCRF-CEM leukemia
TK-10 renal = system: TK-10 renal
MOLT-4 leukemia = system: MOLT-4 leukemia
HS 578T breast = system: HS 578T breast
OVCAR-8 ovarian = system: OVCAR-8 ovarian
M14 melanoma = system: M14 melanoma
IGROV1 ovarian = system: IGROV1 ovarian
OVCAR-5 ovarian = system: OVCAR-5 ovarian
SK-OV-3 ovarian = system: SK-OV-3 ovarian
MCF7 breast = system: MCF7 breast
LOX IMVI melanoma = system: LOX IMVI melanoma
HCT-116 colon = system: HCT-116 colon
U251 CNS = system: U251 CNS
OVCAR-4 ovarian = system: OVCAR-4 ovarian
UACC-62 melanoma = system: UACC-62 melanoma
DLD-1 colon = system: DLD-1 colon
COLO 205 colon = system: COLO 205 colon
SW-620 colon = system: SW-620 colon
HOP-92 NSCLC = system: HOP-92 NSCLC
MDA-N = system: MDA-N
NCI-H460 lung = system: NCI-H460 lung
NCI-H226 lung = system: NCI-H226 lung
A549 NSCLC = system: A549 NSCLC
NCI/ADR-RES ovarian = system: NCI/ADR-RES ovarian
HCC-2998 colon = system: HCC-2998 colon
HOP-62 NSCLC = system: HOP-62 NSCLC
DMS 273 small cell lung = system: DMS 273 small cell lung
SNB-75 CNS = system: SNB-75 CNS
RXF 393 renal = system: RXF 393 renal
786-0 renal = system: 786-0 renal

## C1CN1c1nc(N2CC2)nc(N2CC2)n1
KM20L2 colon
  TGI: 47.7 µM
CAKI-1 renal
  GI50: 1870 nM
  TGI: 24.8 µM and 27.5 µM
MDA-MB-231 breast
  TGI: 56.5 µM and 36.4 µM
BT-549 breast
  GI50: 8.42 µM
  TGI: 45.1 µM and 19.1 µM
SF-295 CNS
  GI50: 1310 nM
  TGI: 19.7 µM and 24.9 µM
A498 renal
  TGI: 25.2 µM
T-47D breast
  GI50: 8.23 µM and 1.24 µM
  TGI: 76.6 µM and 19.6 µM
HCT-15 colon
  GI50: 10.1 µM
  TGI: 50.2 µM and 24.6 µM
DU-145 prostate
  GI50: 825 nM
PC-3 prostate
  GI50: 20.2 µM
  TGI: 69.3 µM and > 71.2 µM
P388/ADR leukemia
  TGI: 16.7 µM
DMS 114 small cell lung
  TGI: 23.2 µM
K-562 leukemia
  TGI: 77.9 µM
UO-31 renal
  GI50: 1280 nM
  TGI: 23.4 µM and 3.68 µM
KM12 colon
  GI50: 13 µM
  TGI: 42.3 µM and 35.9 µM
SR leukemia
  TGI: 19.6 µM
P388 leukemia
  TGI: 17.3 µM
SK-MEL-5 melanoma
  GI50: 6.93 µM
  TGI: 19.6 µM and 14 µM
SK-MEL-28 melanoma
  TGI: 40 µM
SN12K1 renal
  TGI: 26 µM
NCI-H522 lung
  TGI: 21 µM and 12.2 µM
OVCAR-3 ovarian
  TGI: 41.7 µM and 25.8 µM
SN12C renal
  GI50: 4.32 µM
  TGI: 45.3 µM and 41.2 µM
SK-MEL-2 melanoma
  GI50: 19.8 µM
  TGI: 36.4 µM and 31.3 µM
CCRF-CEM leukemia
  GI50: 195 nM
TK-10 renal
  GI50: 4.36 µM
  TGI: 79.8 µM and 16.7 µM
MOLT-4 leukemia
  TGI: 15.3 µM
HS 578T breast
  GI50: 23.4 µM
  TGI: 87.5 µM and 52.8 µM
OVCAR-8 ovarian
  GI50: 5.11 µM
  TGI: 38.8 µM and 16.2 µM
M14 melanoma
  GI50: 3.86 µM
  TGI: 23.9 µM and 34.9 µM
IGROV1 ovarian
  GI50: 11.1 µM
  TGI: 33.4 µM and 21.8 µM
OVCAR-5 ovarian
  GI50: 13.7 µM
  TGI: 42 µM and 31.4 µM
SK-OV-3 ovarian
  GI50: 13.9 µM
  TGI: 41.1 µM and 36.6 µM
MCF7 breast
  GI50: 1390 nM
  TGI: 27.1 µM and 28.9 µM
LOX IMVI melanoma
  TGI: 24.7 µM and 14.3 µM
HCT-116 colon
  TGI: 33.4 µM and 15.6 µM
U251 CNS
  GI50: 6.6 µM
  TGI: 27.5 µM and > 50.1 µM
OVCAR-4 ovarian
  GI50: 13.8 µM
  TGI: 36.5 µM and 20.3 µM
UACC-62 melanoma
  GI50: 3.75 µM
  TGI: 14.8 µM and 17 µM
DLD-1 colon
  TGI: 78.8 µM
COLO 205 colon
  TGI: 32 µM and 41 µM
SW-620 colon
  GI50: 7.84 µM
  TGI: 56.3 µM and > 54.9 µM
HOP-92 NSCLC
  GI50: 8.04 µM
  TGI: 35.9 µM and 17.7 µM
MDA-N
  GI50: 15 µM
  TGI: 42 µM and 33.3 µM
NCI-H460 lung
  TGI: 17.6 µM
NCI-H226 lung
  GI50: 10.8 µM
  TGI: 27.3 µM and 25.7 µM
A549 NSCLC
  GI50: 4.99 µM
  TGI: 31 µM and 28.3 µM
NCI/ADR-RES ovarian
  GI50: 3.48 µM
  TGI: 38.6 µM and 12.8 µM
HCC-2998 colon
  GI50: 10.4 µM
  TGI: 23.8 µM and 18.3 µM
HOP-62 NSCLC
  GI50: 5.92 µM
  TGI: 15.7 µM and 30.1 µM
DMS 273 small cell lung
  TGI: 20.5 µM
SNB-75 CNS
  GI50: 8.99 µM
  TGI: 25.7 µM and 31.5 µM
RXF 393 renal
  GI50: 3.32 µM
  TGI: 21.6 µM and 13.5 µM
786-0 renal
  GI50: 1830 nM
  TGI: 17 µM and 16 µM
